Laboratory results taken from patent publication US20060084789A1, “Immunotherapeutic and immunoprphylactic reagents” (priority 2002, published 2006).

Columns and labels:
Type in all cases: cell-based, human
RGP-specific TCL = assay: TCL proliferation assay (3H-thymidine incorporation, stimulation index); conditions: peptides 10 μg/ml
Protocol: Generation of Short-Term RGP-Specific TCL
PBMC were cultured in 24-well plates (Costar, Mass., USA) at 2.5×10^6 cells/well with RGP extract at a concentration of 25 or 50 μg/ml in RPMI 1640 medium (Gibco BRL, NY, USA) supplemented with 2 mM GlutaMAX I (Gibco BRL), 0.05 mg/ml gentamicin (David Bull Laboratories, Mulgrave, Victoria, Australia) and 5% heat-inactivated hunan AB^+ serum (Sigma, Mo., USA) for 7 days at 37° C. in a 5% CO2 humidified incubator. At day 7, cells were washed once and restimulated in 24-well plates at 5×10^5 cells/well width 25 or 50 μg/ml of RGP extract in the presence of 5×10^5 cells/well irradiated (3000 rads) autologous PBMC as a source of antigen presenting cells (APC). At day 2 following restimulation, 10 U/ml of Lymphocult T-LF (LC; Biotest, Germany) was added as a source of IL-2 and at day 4, 1 ml of culture medium was removed and replaced with fresh medium and 10 U/ml of LC. […] In all experiments T cells were rested for 6 to 7 days after the last addition of antigen and APC before testing.
T cells (5×10^4/well) were cultured in 96-well U bottom plates with either RGP extract at concentrations ranging from 25 to 200 μg/ml, purified Lol p 1 (0.12 to 2 μg/ml) or Lol p 5 (0.1 to 10 μg/ml), or Lol p 1 or Lol p 5 peptides (10 μg/ml), or medium alone (to determine background levels of proliferation), in the presence of washed autologous irradiated (3000 rads) PBMC (5×10^4/well). […] Cultures were incubated for 3 days, pulsed for the last 16 hours with ^3H-thymidine (1 μCi/well) and harvested onto glass fibre filters. ^3H-thymidine incorporation was measured by liquid scintillation spectroscopy and the mean counts per minute (cpm) for triplicate cultures was determined. Responses were considered positive if the stimulation index (SI, cpm of antigen-stimulated T cells divided by cpm of unstimulated T cells) was ≧2.5. Where several concentrations of allergen were tested (i.e., RGP, Lol p 1 and Lol p 5), values corresponding to the highest proliferation are shown.

[1] = test system: IFN-γ production by RGP-specific TCL; assay: IFN-γ detection in culture supernatants by sandwich ELISA; conditions: supernatant at 48 h, UD undetectable, limit of detection 2 pg/ml
Protocol: (§1) Cytokine Detection in Culture Supernatants
(§2) Supernatants of triplicate cultures were harvested and pooled from T cell proliferation assay cultures at 48 hours for the detection of IL-5 and IFN-γ production by sandwich ELISA. Briefly white Maxisorp (NUNC, Roskilde, Denmark) ELISA plates were coated with capture mAb (anti-IL-5, Pharmingen, San Diego, Calif., USA; anti-IFN-γ, Endogen, Woburn, Mass. USA) overnight at 4° C. Plates were then washed and wells blocked with 1% Bovine Serum Albumin/PBS for 1 hour at room temperature. Following washing, test samples (neat) and serial dilutions of recombinant human IL-5 (Pharmingen, USA) or IFN-γ (Endogen, USA) (for the construction of standard curves) were added and incubated overnight at 4° C. Following washing, plates were incubated with biotinylated detecting mAb (anti-IL-5, Pharmingen, USA; […], Endogen, USA) for 1 hour at room temperature. Plates were then washed and incubated with streptavidin-peroxidase (Amersham, Piscataway, N.J., USA) for 30 minutes at room temperature. Following washing, a chemiluminescent substrate (Du Pont, Wilmington, Del., USA) was added to each well and plates read in a Lumicount microplate Glow Luminometer (Packard Instrument Company, Meriden, Conn., USA), 0.5 seconds/well, automatic sensitivity setting. Standard curve construction and determination of test sample cytokine levels were performed using Packard I-smart software. The limits of detection for IL-5 and IFN-γ were 10 pg/ml and 2 pg/ml respectively.

[2] = test system: IL-5 production by RGP-specific TCL; assay: IL-5 detection in culture supernatants by sandwich ELISA; conditions: supernatant at 48 h, UD undetectable, limit of detection 10 pg/ml
Protocol: as §1, §2

[3] = Subject 2 TCL, Lol p 5 series (Table 4), RGP and Lol p 5 maximal response
[4] = Subject 11 TCL, Lol p 5 series (Table 4), RGP and Lol p 5 maximal response
[5] = Subject 13 TCL, Lol p 5 series (Table 4), RGP and Lol p 5 maximal response
[6] = Subject 2 TCL, Lol p 5 peptides
[7] = Subject 38 TCL, Lol p 5 series (Table 4), RGP and Lol p 5 maximal response, * SDS-PAGE purified Lol p 5
[8] = Subject 38 TCL, Lol p 5 peptides
[9] = Subject 2 TCL, Lol p 1 series (Table 3), RGP and Lol p 1 maximal response
[10] = Subject 15 TCL, Lol p 1 series (Table 3), RGP and Lol p 1 maximal response
[11] = Subject 19 TCL, Lol p 1 series (Table 3), RGP and Lol p 1 maximal response
[12] = Subject 15 TCL, Lol p 1 peptides
[13] = Subject 19 TCL, Lol p 1 peptides
[14] = Subject 4 TCL, Lol p 1 series (Table 3), RGP and Lol p 1 maximal response
[15] = Subject 11 TCL, Lol p 1 series (Table 3), RGP and Lol p 1 maximal response
[16] = Subject 14 TCL, Lol p 1 series (Table 3), RGP and Lol p 1 maximal response

## AALTKAITAMTQAQKAGKPA (Lolium perenne) [Lol p 5 peptide 226-245]
RGP-specific TCL; [3]
  Proliferative response, stimulation index: 3.3
RGP-specific TCL; [4]
  Proliferative response, stimulation index: 3.5
RGP-specific TCL; [5]
  Proliferative response, stimulation index: 2.0
RGP-specific TCL; Subject 27 TCL, Lol p 5 series (Table 4), RGP and Lol p 5 maximal response, † affinity purified Lol p 5
  Proliferative response, stimulation index: 7.1
[1]; [6]
  IFN-γ, proliferation inducing peptides: 292.0 pg/mL

## ADKFKIFEAAFSESSKGLLA (Lolium perenne) [Lol p 5 peptide 55-74]
RGP-specific TCL; Subject 36 TCL, Lol p 5 series (Table 4), RGP and Lol p 5 maximal response
  Proliferative response, stimulation index: 3.3
RGP-specific TCL; [7]
  Proliferative response, stimulation index: 3.3
[2]; [8]
  IL-5, proliferation inducing peptides: 220.7 pg/mL
[1]; [8]
  IFN-γ, proliferation inducing peptides: 54.2 pg/mL

## DVNAGFKAAVAAAANAPPAD (Lolium perenne) [Lol p 5 peptide 37-56]
RGP-specific TCL; [3]
  Proliferative response, stimulation index: 4.3
RGP-specific TCL; Subject 6 TCL, Lol p 5 series (Table 4), RGP and Lol p 5 maximal response
  Proliferative response, stimulation index: 7.3
RGP-specific TCL; [4]
  Proliferative response, stimulation index: 4.5
RGP-specific TCL; [5]
  Proliferative response, stimulation index: 0.9
RGP-specific TCL; Subject 20 TCL, Lol p 5 series (Table 4), RGP and Lol p 5 maximal response
  Proliferative response, stimulation index: 4.9
RGP-specific TCL; Subject 29 TCL, Lol p 5 series (Table 4), RGP and Lol p 5 maximal response
  Proliferative response, stimulation index: 2.8
RGP-specific TCL; Subject 35 TCL, Lol p 5 series (Table 4), RGP and Lol p 5 maximal response
  Proliferative response, stimulation index: 4.1
RGP-specific TCL; [7]
  Proliferative response, stimulation index: 4.0
[2]; [6]
  IL-5, proliferation inducing peptides: 692.8 pg/mL
[2]; [8]
  IL-5, proliferation inducing peptides: 275.1 pg/mL
[1]; [6]
  IFN-γ, proliferation inducing peptides: 7.0 pg/mL
[1]; [8]
  IFN-γ, proliferation inducing peptides: 85.0 pg/mL

## GHAFGSMAKKGEEQNVRSAG (Lolium perenne) [Lol p 1 peptide 109-128]
RGP-specific TCL; [9]
  Proliferative response, stimulation index: 12.9
RGP-specific TCL; Subject 3 TCL, Lol p 1 series (Table 3), RGP and Lol p 1 maximal response
  Proliferative response, stimulation index: 2.8
RGP-specific TCL; [10]
  Proliferative response, stimulation index: 7.1
RGP-specific TCL; Subject 16 TCL, Lol p 1 series (Table 3), RGP and Lol p 1 maximal response
  Proliferative response, stimulation index: 3.0
RGP-specific TCL; Subject 17 TCL, Lol p 1 series (Table 3), RGP and Lol p 1 maximal response
  Proliferative response, stimulation index: 2.7
RGP-specific TCL; [11]
  Proliferative response, stimulation index: 12.0
[2]; [12]
  IL-5, proliferation inducing peptides: 160.7 pg/mL
[1]; Subject 3 TCL, Lol p 1 peptides
  IFN-γ, proliferation inducing peptides: 32.1 pg/mL
[1]; [12]
  IFN-γ, proliferation inducing peptides: 143.3 pg/mL
[1]; Subject 16 TCL, Lol p 1 peptides
  IFN-γ, proliferation inducing peptides: 13.8 pg/mL
[1]; [13]
  IFN-γ, proliferation inducing peptides: 8.0 pg/mL

## IAPYHFDLSGHAFGSMAKKG (Lolium perenne) [Lol p 1 peptide 100-119]
RGP-specific TCL; [9]
  Proliferative response, stimulation index: 9.4
RGP-specific TCL; [14]
  Proliferative response, stimulation index: 6.8
RGP-specific TCL; [15]
  Proliferative response, stimulation index: 7.9
RGP-specific TCL; [10]
  Proliferative response, stimulation index: 9.2
RGP-specific TCL; [11]
  Proliferative response, stimulation index: 3.7
[2]; [12]
  IL-5, proliferation inducing peptides: 275.6 pg/mL
[1]; [12]
  IFN-γ, proliferation inducing peptides: 167.1 pg/mL

## KESWGAVWRIDTPDKLTGPF (Lolium perenne) [Lol p 1 peptide 190-209]
RGP-specific TCL; [14]
  Proliferative response, stimulation index: 6.2
RGP-specific TCL; Subject 10 TCL, Lol p 1 series (Table 3), RGP and Lol p 1 maximal response
  Proliferative response, stimulation index: 3.7
RGP-specific TCL; [15]
  Proliferative response, stimulation index: 3.3
RGP-specific TCL; [16]
  Proliferative response, stimulation index: 5.7
RGP-specific TCL; Subject 18 TCL, Lol p 1 series (Table 3), RGP and Lol p 1 maximal response
  Proliferative response, stimulation index: 5.4
RGP-specific TCL; [11]
  Proliferative response, stimulation index: 3.0
RGP-specific TCL; Subject 22 TCL, Lol p 1 series (Table 3), RGP and Lol p 1 maximal response
  Proliferative response, stimulation index: 5.7
RGP-specific TCL; Subject 23 TCL, Lol p 1 series (Table 3), RGP and Lol p 1 maximal response
  Proliferative response, stimulation index: 5.2
[2]; [12]
  IL-5, proliferation inducing peptides: 15.3 pg/mL
[2]; [13]
  IL-5, proliferation inducing peptides: 14.7 pg/mL
[1]; Subject 10 TCL, Lol p 1 peptides
  IFN-γ, proliferation inducing peptides: 9.0 pg/mL
[1]; [12]
  IFN-γ, proliferation inducing peptides: 63.5 pg/mL
[1]; Subject 23 TCL, Lol p 1 peptides
  IFN-γ, proliferation inducing peptides: 8.3 pg/mL

## KPTGAGPKDNGGACGYKDVD (Lolium perenne) [Lol p 1 peptide 28-47]
RGP-specific TCL; [14]
  Proliferative response, stimulation index: 4.1
RGP-specific TCL; [15]
  Proliferative response, stimulation index: 3.5
RGP-specific TCL; [10]
  Proliferative response, stimulation index: 7.6
RGP-specific TCL; [11]
  Proliferative response, stimulation index: 3.0
[1]; [12]
  IFN-γ, proliferation inducing peptides: 23.2 pg/mL
[1]; [13]
  IFN-γ, proliferation inducing peptides: 5.2 pg/mL

## Lol p 1 peptide 1-20: synthetic 20-mer, amino acids 1-20 of Lol p 1A (SEQ ID NO:1) (IAKVPPGPNITAEYGDKWLD; Lolium perenne)
RGP-specific TCL; Subject 24 TCL, Lol p 1 series (Table 3), RGP and Lol p 1 maximal response
  Proliferative response, stimulation index: 2.6
[2]; Subject 74 TCL, Lol p 1 peptides
  IL-5, proliferation inducing peptides: 46.1 pg/mL

## Lol p 1 peptide 136-155: synthetic 20-mer, amino acids 136-155 of Lol p 1A (SEQ ID NO:1) (RRVKCKYPDGTKPTFHVEKA; Lolium perenne)
RGP-specific TCL; [14]
  Proliferative response, stimulation index: 2.5
RGP-specific TCL; [16]
  Proliferative response, stimulation index: 4.4
[1]; Subject 14 TCL, Lol p 1 peptides
  IFN-γ, proliferation inducing peptides: 106.4 pg/mL
